{
  "source": "ChEMBL document CHEMBL4145482",
  "about": "“Discovery of novel HSP90 inhibitors that induced apoptosis and impaired autophagic flux in A549 lung cancer cells” (Eur J Med Chem, 2018)",
  "key": {"[1]": {"target": "T1, Heat shock protein HSP90 (Homo sapiens) (UniProt P07900+P08238)", "assay": "Inhibition of anti-HSP90 antibody binding to HSP90 in human A549 cells preincubated for 1 hr followed by antibody addition by Western blot analysis", "type": "cell-based"}, "A549 [2]": {"system": "A549", "assay": "Induction of apoptosis in human A549 cells assessed as DNA fragmentation at 10 uM after 6 to 24 hrs by Hoechst 33258 staining based fluorescence microscopic method", "type": "functional, cell-based"}, "A549 [3]": {"system": "A549", "assay": "Inhibition of autophagic flux in human A549 cells assessed as increase in p62 protein level at 10 uM after 24 hrs by Western blot analysis", "type": "functional, cell-based"}, "A549 [4]": {"system": "A549", "assay": "Growth inhibition of human A549 cells after 48 hrs by SRB assay", "type": "functional, cell-based", "settings": "for IC50: A549, 48 h"}, "A549 [5]": {"system": "A549", "assay": "Induction of necrosis in human A549 cells at 10 to 20 uM after 48 hrs by LDH release assay", "type": "functional, cell-based"}, "A549 [6]": {"system": "A549", "assay": "Induction of apoptosis in human A549 cells assessed as chromatin condensation at 10 uM after 6 to 24 hrs by Hoechst 33258 staining based fluorescence microscopic method", "type": "functional, cell-based"}, "A549 [7]": {"system": "A549", "assay": "Inhibition of autophagic flux in human A549 cells assessed as increase in LC3-2 protein level at 10 uM after 24 hrs in presence of V-ATPase inhibitor bafilomycin-A1 by Western blot analysis", "type": "functional, cell-based"}, "A549 [8]": {"system": "A549", "assay": "Inhibition of autophagic flux in human A549 cells assessed as increase in p62 protein level at 10 uM after 24 hrs in presence of V-ATPase inhibitor bafilomycin-A1 by Western blot analysis", "type": "functional, cell-based"}, "A549 [9]": {"system": "A549", "assay": "Inhibition of autophagic flux in human A549 cells assessed as increase in LC3-2 protein level at 10 uM after 24 hrs by Western blot analysis", "type": "functional, cell-based"}, "HUVEC": {"system": "HUVEC", "assay": "Cytotoxicity against HUVEC assessed as reduction in cell viability after 48 hrs by SRB assay", "type": "cell-based", "settings": "human"}, "A549 [10]": {"system": "A549", "assay": "Effect on HSP90 protein expression in human A549 cells at 10 uM up to 48 hrs by Western blot analysis", "type": "cell-based", "settings": "a549, 48 h"}, "[11]": {"target": "T1, Heat shock protein HSP90 (Homo sapiens)", "assay": "Inhibition of HSP90 in human A549 cells assessed as reduction in AKT protein expression at 10 uM up to 48 hrs by Western blot analysis", "type": "cell-based"}, "[12]": {"target": "T1, Heat shock protein HSP90 (Homo sapiens)", "assay": "Inhibition of HSP90 in human A549 cells assessed as reduction in NFkB p65 protein expression at 10 uM up to 48 hrs by Western blot analysis", "type": "cell-based"}, "A549 [13]": {"system": "A549", "assay": "Upregulation of HSP70 protein expression in human A549 cells at 10 uM up to 48 hrs by Western blot analysis", "type": "cell-based", "settings": "a549, 48 h"}, "A549 [14]": {"system": "A549", "assay": "Growth inhibition of human A549 cells up to 20 uM up to 48 hrs by SRB assay", "type": "functional, cell-based"}},
  "note": "Calls of active or inactive are those of the source. No cut-off for these calls is given here.",
  "data": [
    {"molecule": "COc1ccc(C2CC(c3cc4ccc(O)cc4oc3=O)=NN2c2ccc(Cl)cc2)cc1", "note": "(stereo unspecified)", "values": [
      {"measurement": "inhibition", "setting": "[1]", "value": "Dose-dependent effect"},
      {"measurement": "Activity", "setting": "A549 [2]", "value": "Active"},
      {"measurement": "Activity", "setting": "A549 [3]", "value": "Active"},
      {"measurement": "growth inhibition (GI)", "setting": "A549 [4]", "value": "Dose-dependent effect"},
      {"measurement": "IC50", "setting": "A549 [4]", "value": 9.6, "unit": "µM"},
      {"measurement": "Activity", "setting": "A549 [5]", "value": "inactive"},
      {"measurement": "Activity", "setting": "A549 [6]", "value": "Active"},
      {"measurement": "Activity", "setting": "A549 [7]", "value": "inactive"},
      {"measurement": "Activity", "setting": "A549 [8]", "value": "inactive"},
      {"measurement": "Activity", "setting": "A549 [9]", "value": "Active"}
    ]},
    {"molecule": "COc1ccc(C2CC(c3cc4ccc(O)cc4oc3=O)=NN2c2ccccc2)cc1", "note": "(stereo unspecified)", "values": [
      {"measurement": "inhibition", "setting": "[1]", "value": "Dose-dependent effect"},
      {"measurement": "Activity", "setting": "A549 [2]", "value": "Active"},
      {"measurement": "Activity", "setting": "A549 [3]", "value": "Active"},
      {"measurement": "growth inhibition (GI)", "setting": "A549 [4]", "value": "Dose-dependent effect"},
      {"measurement": "IC50", "setting": "A549 [4]", "value": 6.3, "unit": "µM"},
      {"measurement": "Activity", "setting": "A549 [5]", "value": "inactive"},
      {"measurement": "Activity", "setting": "A549 [6]", "value": "Active"},
      {"measurement": "Activity", "setting": "A549 [7]", "value": "inactive"},
      {"measurement": "Activity", "setting": "A549 [8]", "value": "inactive"},
      {"measurement": "Activity", "setting": "A549 [9]", "value": "Active"}
    ]},
    {"molecule": "O=c1oc2cc(O)ccc2cc1C1=NN(c2ccccc2)C(c2ccccc2)C1", "note": "(stereo unspecified)", "values": [
      {"measurement": "inhibition", "setting": "[1]", "value": "Dose-dependent effect"},
      {"measurement": "Activity", "setting": "HUVEC", "value": "Non-Toxic"},
      {"measurement": "Activity", "setting": "A549 [2]", "value": "Active"},
      {"measurement": "Activity", "setting": "A549 [3]", "value": "Active"},
      {"measurement": "growth inhibition (GI)", "setting": "A549 [4]", "value": "Dose-dependent effect"},
      {"measurement": "IC50", "setting": "A549 [4]", "value": 4.7, "unit": "µM"},
      {"measurement": "Activity", "setting": "A549 [10]", "value": "Non-Toxic"},
      {"measurement": "inhibition", "setting": "[11]", "value": "Active"},
      {"measurement": "Activity", "setting": "A549 [5]", "value": "inactive"},
      {"measurement": "Activity", "setting": "A549 [6]", "value": "Active"},
      {"measurement": "inhibition", "setting": "[12]", "value": "Active"},
      {"measurement": "Activity", "setting": "A549 [7]", "value": "inactive"},
      {"measurement": "Activity", "setting": "A549 [8]", "value": "inactive"},
      {"measurement": "Activity", "setting": "A549 [9]", "value": "Active"},
      {"measurement": "Activity", "setting": "A549 [13]", "value": "Non-Toxic"}
    ]},
    {"molecule": "COc1ccc(C2CC(c3cc4ccc(O)cc4oc3=O)=NN2c2ccc(F)cc2)cc1", "note": "(stereo unspecified)", "values": [
      {"measurement": "inhibition", "setting": "[1]", "value": "Dose-dependent effect"},
      {"measurement": "Activity", "setting": "A549 [2]", "value": "Active"},
      {"measurement": "Activity", "setting": "A549 [3]", "value": "Active"},
      {"measurement": "growth inhibition (GI)", "setting": "A549 [4]", "value": "Dose-dependent effect"},
      {"measurement": "IC50", "setting": "A549 [4]", "value": 7.1, "unit": "µM"},
      {"measurement": "Activity", "setting": "A549 [5]", "value": "inactive"},
      {"measurement": "Activity", "setting": "A549 [6]", "value": "Active"},
      {"measurement": "Activity", "setting": "A549 [7]", "value": "inactive"},
      {"measurement": "Activity", "setting": "A549 [8]", "value": "inactive"},
      {"measurement": "Activity", "setting": "A549 [9]", "value": "Active"}
    ]},
    {"molecule": "O=c1[nH]cc(F)c(=O)[nH]1", "values": [
      {"measurement": "growth inhibition (GI)", "setting": "A549 [14]", "value": "inactive"}
    ]},
    {"molecule": "O=c1oc2cc(O)ccc2cc1C1=NN(c2ccc(F)cc2)C(c2ccccc2)C1", "note": "(stereo unspecified)", "values": [
      {"measurement": "inhibition", "setting": "[1]", "value": "Dose-dependent effect"},
      {"measurement": "Activity", "setting": "A549 [2]", "value": "Active"},
      {"measurement": "Activity", "setting": "A549 [3]", "value": "Active"},
      {"measurement": "growth inhibition (GI)", "setting": "A549 [4]", "value": "Dose-dependent effect"},
      {"measurement": "IC50", "setting": "A549 [4]", "value": 7.2, "unit": "µM"},
      {"measurement": "Activity", "setting": "A549 [5]", "value": "inactive"},
      {"measurement": "Activity", "setting": "A549 [6]", "value": "Active"},
      {"measurement": "Activity", "setting": "A549 [7]", "value": "inactive"},
      {"measurement": "Activity", "setting": "A549 [8]", "value": "inactive"},
      {"measurement": "Activity", "setting": "A549 [9]", "value": "Active"}
    ]},
    {"molecule": "COc1ccc(C2CC(c3cc4ccc(O)cc4oc3=O)=NN2c2ccc(Br)cc2)cc1", "note": "(stereo unspecified)", "values": [
      {"measurement": "inhibition", "setting": "[1]", "value": "Dose-dependent effect"},
      {"measurement": "Activity", "setting": "A549 [2]", "value": "Active"},
      {"measurement": "Activity", "setting": "A549 [3]", "value": "Active"},
      {"measurement": "growth inhibition (GI)", "setting": "A549 [4]", "value": "Dose-dependent effect"},
      {"measurement": "IC50", "setting": "A549 [4]", "value": 6.5, "unit": "µM"},
      {"measurement": "Activity", "setting": "A549 [5]", "value": "inactive"},
      {"measurement": "Activity", "setting": "A549 [6]", "value": "Active"},
      {"measurement": "Activity", "setting": "A549 [7]", "value": "inactive"},
      {"measurement": "Activity", "setting": "A549 [8]", "value": "inactive"},
      {"measurement": "Activity", "setting": "A549 [9]", "value": "Active"}
    ]}
  ]
}
